Our source for the solubility values is US11628220B2, “Pharmaceutical composition and methods of uses” (Foresee Pharmaceuticals Co., Ltd., priority 2016, dated 2023).

SMILES strings stand for the structures. Values after ≈ are worked out from the molar mass of the structure shown. Like-named read-outs stand apart in the source and are kept apart here.

A short description of this data set: Aqueous solubility in different cyclodextrin solutions (excess compound, shaken 24 hours, HPLC). Type of data set: physicochemical. The following applies: aqueous cyclodextrin solution, thermodynamic from solid, room temperature, read-out: Solubility in CD's solution (concentration of compound). As for the experimental part: In order to test the effect of various CDs on the aqueous solubility of compound IVE, 1 mL of each of the following aqueous solutions as described in Table 2 was prepared. […] Excess IVE was present in all samples at all times to obtain solubility. After 24-hours, the samples were centrifuged. […] The size of the compound may allow it to form an inclusion complex, resulting in a higher aqueous solubility.
In order to test the effect of various CDs on the aqueous solubility of compound IVP, 1 mL of each of the following aqueous solutions as described in Table 3 was prepared. […] Excess IVP was present in all samples at all times. After 24-hours, the samples were centrifuged. […] The size of the compound may allow it to form an inclusion complex, resulting in a higher aqueous solubility.
In order to test the effect of various CDs on the aqueous solubility of compound IVO, 1 mL of each of the following aqueous solutions as described in Table 4 was prepared. […] Excess IVO was present in all samples at all times. After 24-hours, the samples were centrifuged. […] The size of the compound may allow it to form an inclusion body complex, resulting in a higher aqueous solubility.
In order to test the effect of various CDs on the aqueous solubility of compound IVQ, 1 mL of each of the following aqueous solutions as described in Table 5 was prepared. […] Excess IVQ was present in all samples at all times. After 24-hours, the samples were centrifuged. […] The size of the compound may allow it to form an inclusion body complex, resulting in a higher aqueous solubility.

Where [1] appears, read: aqueous with cosolvent or surfactant or cyclodextrin, ACD 40 mg/ml.
Where [2] appears, read: aqueous with cosolvent or surfactant or cyclodextrin, HPBCD 100 mg/ml.
Setting [3] is: aqueous with cosolvent or surfactant or cyclodextrin, HPGCD 100 mg/ml.
Setting [4] is: aqueous with cosolvent or surfactant or cyclodextrin, MBCD 100 mg/ml.
The mark [5] stands for this setting: aqueous with cosolvent or surfactant or cyclodextrin, SBEBCD 100 mg/ml.

Turning to `COc1cccc(COc2ccc(Sc3ccoc3C3NC(=O)NC3=O)cc2)c1` (centres unmarked) [IVE, 5-{3-[4-(3-Methoxybenzyloxy)phenylthio]fur-2-yl}imidazolidine-2,4-dione], the solubility at 24 h was determined as 53 µg/mL (≈ 129 µM) under setting [1]; 744 µg/mL (≈ 1810 µM) under setting [2]; 59 µg/mL (≈ 144 µM) under setting [3]; 3250 µg/mL (≈ 7920 µM) under setting [4]; 815 µg/mL (≈ 1990 µM) under setting [5]; 23 µg/mL (≈ 56 µM) (water, ACD 0 mg/ml). In addition, the solubility at 24 h was determined as 23 µg/mL (≈ 56 µM) (water, HPBCD 0 mg/ml); 23 µg/mL (≈ 56 µM) (water, HPGCD 0 mg/ml); 23 µg/mL (≈ 56 µM) (water, MBCD 0 mg/ml); 23 µg/mL (≈ 56 µM) (water, SBEBCD 0 mg/ml).
As for `Cc1ccccc1COc1ccc(Sc2ccoc2C2NC(=O)NC2=O)cc1` (centres unmarked) [IVP, 5-{3-[4-(2-Methyl-benzyloxy)phenylthio]fur-2-yl}imidazolidine-2,4-dione], the solubility at 24 h by setting is: under setting [1], 15 µg/mL (≈ 38 µM); under setting [2], 727 µg/mL (≈ 1840 µM); under setting [3], 1 µg/mL (≈ 2.54 µM); under setting [4], 6270 µg/mL (≈ 15900 µM); under setting [5], 805 µg/mL (≈ 2040 µM); (water, ACD 0 mg/ml) 64 µg/mL (≈ 162 µM). Also, the solubility at 24 h runs as follows: (water, HPBCD 0 mg/ml) 64 µg/mL (≈ 162 µM); (water, HPGCD 0 mg/ml) 64 µg/mL (≈ 162 µM); (water, MBCD 0 mg/ml) 64 µg/mL (≈ 162 µM); (water, SBEBCD 0 mg/ml) 64 µg/mL (≈ 162 µM).
Consider `O=C1NC(=O)C(c2occc2Sc2ccc(OCc3cccc(C(F)(F)F)c3)cc2)N1` (centres unmarked) [IVQ, 5-{3-[4-(3-Trifluoromethyl-benzyloxy)phenylthio]fur-2-yl}imidazolidine-2,4-dione], for which the solubility at 24 h was found to be 111 µg/mL (≈ 248 µM) under setting [1]; 1220 µg/mL (≈ 2710 µM) under setting [2]; 5780 µg/mL (≈ 12900 µM) under setting [4]; 641 µg/mL (≈ 1430 µM) under setting [5]; 138 µg/mL (≈ 308 µM) (water, ACD 0 mg/ml); 138 µg/mL (≈ 308 µM) (water, HPBCD 0 mg/ml). Besides, the solubility at 24 h is 138 µg/mL (≈ 308 µM) (water, HPGCD 0 mg/ml); 138 µg/mL (≈ 308 µM) (water, MBCD 0 mg/ml); 138 µg/mL (≈ 308 µM) (water, SBEBCD 0 mg/ml).
